Laboratory results from US20060083680A1, “Diphenyl ether derivatives and their use for imaging serotonin transporters” (The Trustees of the University of Pennsylvania, priority 2004, published 2006).
“And” between values parts separate entries of the source, which are not always exact repeats. Equal values may be shown once. “Also recorded” adds a separate entry of the source.

Columns and labels:
[1] = Stability of the radioactive material; details: refrigerator
SERT binding sites = target: T1, SERT binding sites (Rattus norvegicus, UniProt P31652); assay: Ex vivo autoradiography of rat brain sections; format: in vivo, rats; details: rats, ex vivo after i.v. injection
T1 construct: from tissue; host or cells: rat brain in vivo (hypothalamus, cortex, striatum, hippocampus, cerebellum); ex vivo brain sections
T1 sequence (P31652 whole entry): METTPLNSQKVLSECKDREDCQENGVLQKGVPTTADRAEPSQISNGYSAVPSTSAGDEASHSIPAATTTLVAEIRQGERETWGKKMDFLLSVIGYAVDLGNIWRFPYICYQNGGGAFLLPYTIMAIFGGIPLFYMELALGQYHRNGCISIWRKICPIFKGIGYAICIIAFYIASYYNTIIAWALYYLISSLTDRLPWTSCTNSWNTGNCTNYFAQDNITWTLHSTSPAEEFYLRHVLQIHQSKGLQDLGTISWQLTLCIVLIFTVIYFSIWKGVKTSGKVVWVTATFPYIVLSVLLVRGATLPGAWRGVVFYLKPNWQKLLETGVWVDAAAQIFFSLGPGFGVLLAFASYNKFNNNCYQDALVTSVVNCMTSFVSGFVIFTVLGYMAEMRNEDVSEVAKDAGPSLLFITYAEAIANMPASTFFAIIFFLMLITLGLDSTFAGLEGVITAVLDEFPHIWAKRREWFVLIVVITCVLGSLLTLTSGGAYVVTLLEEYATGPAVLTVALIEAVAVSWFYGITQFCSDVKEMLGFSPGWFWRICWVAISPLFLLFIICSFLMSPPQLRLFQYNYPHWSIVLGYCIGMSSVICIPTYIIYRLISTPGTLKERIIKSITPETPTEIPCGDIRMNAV

serotonin transporters = target: T2, serotonin transporters (Rattus norvegicus, UniProt P31652); assay: Regional brain distribution and specific binding ratio in rats; format: in vivo; details: for Ratio of (Region-Cerebellum)/Cerebellum, CX / Ratio of (Region-Cerebellum)/Cerebellum, HP / Ratio of (Region-Cerebellum)/Cerebellum, HY / Ratio of (Region-Cerebellum)/Cerebellum, ST / Regional brain distribution CB (cerebellum) / Regional brain distribution CX (cortex) / Regional brain distribution HP (hippocampus) / Regional brain distribution HY (hypothalamus) / Regional brain distribution ST (striatum): iv
T2 construct: from tissue; host or cells: rat brain in vivo (hypothalamus, cortex, striatum, hippocampus, cerebellum); ex vivo brain sections
T2 sequence (P31652 whole entry): as above
Description: Regional brain distribution in rats was measured after an i.v. injection of the radioactive tracer. Samples from different brain regions: cortex (frontal plus occipital), striatum, hippocampus, cerebellum and hypothalamus were dissected, weighed and counted. The percentage dose/g of each sample was calculated by comparing sample counts with the counts of the diluted initial dose described above. The specific binding ratio in each region was obtained by dividing the % dose/gram values between region by that in the cerebellum ([region-cerebellum/cerebellum]). The cerebellum region containing little or no serotonin transporters was used as the background region.

[2] = Biodistribution in rats after iv injection (organs); format: in vivo
Description: Biodistribution in rats: Three rats per group were used for each biodistribution study. While under ether anesthesia, 0.2 mL of a saline solution containing 10 μCi of radioactive tracer was injected into the femoral vein. The rats were sacrificed at the time indicated by cardiac excision while under ether anesthesia. Organs of interest were removed and weighed, and the radioactivity was counted. The percent dose per organ was calculated by a comparison of the tissue counts to counts of 1% of the initial dose (100 times diluted aliquots of the injected material) measured at the same time.

## CN(C)Cc1ccccc1Oc1ccc([125I])cc1N [[^125I]4, [^125I][^123I]2-(2-(Dimethylaminomethyl)phenoxy)-5-iodophenylamine]
[1]
  stability in a refrigerator: stable in a refrigerator for at least three weeks
SERT binding sites
  regional distribution pattern in brain: distinctive distribution pattern in the brain, which reflected regional distribution of SERT binding sites; also recorded: excellent regional distribution pattern consistent with known SERT localization
Serotonin transporters; 60-240 min post i.v. injection
  hypothalamus uptake compared to other radioiodinated compounds: highest uptake in hypothalamus
Serotonin transporters; 2 min
  Ratio of (Region-Cerebellum)/Cerebellum, CX: 0.56 ± 0.55
  Ratio of (Region-Cerebellum)/Cerebellum, HP: 0.13 ± 0.22
  Ratio of (Region-Cerebellum)/Cerebellum, HY: 0.24 ± 0.17
  Ratio of (Region-Cerebellum)/Cerebellum, ST: 0.01 ± 0.27
  Regional brain distribution CB (cerebellum): 0.79 ± 0.21 % dose/g
  Regional brain distribution CX (cortex): 1.16 ± 0.14 % dose/g
  Regional brain distribution HP (hippocampus): 0.86 ± 0.07 % dose/g
  Regional brain distribution HY (hypothalamus): 0.96 ± 0.15 % dose/g
  Regional brain distribution ST (striatum): 0.77 ± 0.04 % dose/g
Serotonin transporters; 30 min
  Ratio of (Region-Cerebellum)/Cerebellum, CX: 0.96 ± 0.14
  Ratio of (Region-Cerebellum)/Cerebellum, HP: 0.68 ± 0.22
  Ratio of (Region-Cerebellum)/Cerebellum, HY: 1.06 ± 0.22
  Ratio of (Region-Cerebellum)/Cerebellum, ST: 0.83 ± 0.23
  Regional brain distribution CB (cerebellum): 0.64 ± 0.09 % dose/g
  Regional brain distribution CX (cortex): 1.25 ± 0.13 % dose/g
  Regional brain distribution HP (hippocampus): 1.06 ± 0.12 % dose/g
  Regional brain distribution HY (hypothalamus): 1.30 ± 0.06 % dose/g
  Regional brain distribution ST (striatum): 1.16 ± 0.10 % dose/g
Serotonin transporters; 60 min
  Ratio of (Region-Cerebellum)/Cerebellum, CX: 1.35 ± 0.07
  Ratio of (Region-Cerebellum)/Cerebellum, HP: 1.30 ± 0.05
  Ratio of (Region-Cerebellum)/Cerebellum, HY: 1.92 and 1.92 ± 0.20
  Ratio of (Region-Cerebellum)/Cerebellum, ST: 1.51 ± 0.12
  Regional brain distribution CB (cerebellum): 0.41 ± 0.03 % dose/g
  Regional brain distribution CX (cortex): 0.95 ± 0.07 % dose/g
  Regional brain distribution HP (hippocampus): 0.94 ± 0.08 % dose/g
  Regional brain distribution HY (hypothalamus): 1.18 ± 0.08 % dose/g
  Regional brain distribution ST (striatum): 1.02 ± 0.11 % dose/g
Serotonin transporters; 120 min
  Ratio of (Region-Cerebellum)/Cerebellum, CX: 1.48 ± 0.13
  Ratio of (Region-Cerebellum)/Cerebellum, HP: 2.19 ± 0.07
  Ratio of (Region-Cerebellum)/Cerebellum, HY: 3.49 and 3.49 ± 0.09
  Ratio of (Region-Cerebellum)/Cerebellum, ST: 2.53 ± 0.17
  Regional brain distribution CB (cerebellum): 0.21 ± 0.01 % dose/g
  Regional brain distribution CX (cortex): 0.51 ± 0.04 % dose/g
  Regional brain distribution HP (hippocampus): 0.65 ± 0.04 % dose/g
  Regional brain distribution HY (hypothalamus): 0.92 ± 0.06 % dose/g
  Regional brain distribution ST (striatum): 0.72 ± 0.01 % dose/g
Serotonin transporters; 240 min
  Ratio of (Region-Cerebellum)/Cerebellum, CX: 1.12 ± 0.17
  Ratio of (Region-Cerebellum)/Cerebellum, HP: 2.47 ± 0.28
  Ratio of (Region-Cerebellum)/Cerebellum, HY: 4.49 and 4.3 and 4.49 ± 0.12
  Ratio of (Region-Cerebellum)/Cerebellum, ST: 3.11 ± 0.35
  Regional brain distribution CB (cerebellum): 0.06 ± 0.00 % dose/g
  Regional brain distribution CX (cortex): 0.12 ± 0.01 % dose/g
  Regional brain distribution HP (hippocampus): 0.20 ± 0.02 % dose/g
  Regional brain distribution HY (hypothalamus): 0.32 ± 0.03 % dose/g
  Regional brain distribution ST (striatum): 0.24 ± 0.02 % dose/g
Serotonin transporters; 6 hrs
  Ratio of (Region-Cerebellum)/Cerebellum, CX: 0.58 ± 0.09
  Ratio of (Region-Cerebellum)/Cerebellum, HP: 1.21 ± 0.11
  Ratio of (Region-Cerebellum)/Cerebellum, HY: 2.64 and 2.64 ± 0.54
  Ratio of (Region-Cerebellum)/Cerebellum, ST: 1.56 ± 0.41
  Regional brain distribution CB (cerebellum): 0.027 ± 0.002 % dose/g
  Regional brain distribution CX (cortex): 0.042 ± 0.002 % dose/g
  Regional brain distribution HP (hippocampus): 0.059 ± 0.005 % dose/g
  Regional brain distribution HY (hypothalamus): 0.097 ± 0.015 % dose/g
  Regional brain distribution ST (striatum): 0.068 ± 0.005 % dose/g
Serotonin transporters; 11 hrs
  Ratio of (Region-Cerebellum)/Cerebellum, CX: 0.00 ± 0.16
  Ratio of (Region-Cerebellum)/Cerebellum, HP: 0.09 ± 0.08
  Ratio of (Region-Cerebellum)/Cerebellum, HY: 0.44 ± 0.19
  Ratio of (Region-Cerebellum)/Cerebellum, ST: 0.14 ± 0.13
  Regional brain distribution CB (cerebellum): 0.011 ± 0.0013 % dose/g
  Regional brain distribution CX (cortex): 0.010 ± 0.0010 % dose/g
  Regional brain distribution HP (hippocampus): 0.012 ± 0.0021 % dose/g
  Regional brain distribution HY (hypothalamus): 0.016 ± 0.0025 % dose/g
  Regional brain distribution ST (striatum): 0.012 ± 0.0000 % dose/g
Serotonin transporters; 24 hrs
  Ratio of (Region-Cerebellum)/Cerebellum, HY: 0.23 ± 0.15
  Regional brain distribution CB (cerebellum): 0.0049 ± 0.0009 % dose/g
  Regional brain distribution CX (cortex): 0.0040 ± 0.0007 % dose/g
  Regional brain distribution HP (hippocampus): 0.0040 ± 0.0005 % dose/g
  Regional brain distribution HY (hypothalamus): 0.0060 ± 0.0010 % dose/g
  Regional brain distribution ST (striatum): 0.0039 ± 0.0004 % dose/g
[2]; 2 min post-injection
  brain uptake: 1.77 % dose and 1.77±0.07 % dose
[2]; iv, 2 min
  Biodistribution Blood: 5.75 ± 0.54 % dose/organ
  Biodistribution Brain: 1.77 ± 0.07 % dose/organ
  Biodistribution Heart: 1.51 ± 0.13 % dose/organ
